For assay [1], the system named is 5HT2A sensor. As to the kind of experiment: 5HT2A sensor assay, agonist mode (sLight1.3s HEK293T stable line). The format is cell-based. Conditions: for activation of 5HT2A sensor assay in agonist mode at 10 μM: 10 μM of compound (FIG. 11). The protocol: In some embodiments, hallucinogenic potential of a compound of the present invention is determined in vitro. In some embodiments, hallucinogenic potential of a compound of the present invention is determined using a 5HT2A sensor assay. In some embodiments, the 5HT2A sensor assay is in an agonist mode or an antagonist mode. In some embodiments, the 5HT2A sensor assay is in an agonist mode.
(§1) 5HT2A Sensor Assays. HEK293T (ATCC) 5HT2A sensor stable line (sLight1.3s) was generated via lentiviral transduction of HIV-EF1α-sLight1.3 and propagated from a single colony. Lentivirus was produced using 2nd generation lentiviral plasmids pHIV-EF1α-sLight1.3, pHCMV-G, and pCMV-deltaR8.2.
(§2) For the screening of the 41 compounds, sLight1.3s cells were plated in 96-well plates at a density of 40000 24-hours prior to imaging. On the day of imaging, compounds solubilized in DMSO were diluted from the 100 mM stock solution to working concentrations of 1 mM, 100 μM and 1 μM with a DMSO concentration of 1%. Immediately prior to imaging, cells growing in DMEM (Gibco) were washed 2× with HBSS (Gibco) and in agonist mode 180 μL of HBSS or in antagonist mode 160 μL of HBSS was added to each well after the final wash. For agonist mode, images were taken before and after the addition of the 20 μL compound working solution into the wells containing 180 μL HBSS. This produced final compound concentrations of 100 μM, 10 μM and 100 nM with a DMSO concentration of 0.1%. For antagonist mode, images were taken before and after addition of 20 μL of 900 nM 5-HT and again after 20 μL of the compound working solutions to produce final concentrations of 100 nM for 5HT and 100 μM, 10 μM and 100 nM for the compounds with a DMSO concentration of 0.1%. Each compound was tested in triplicates (3 wells) for each concentration (100 μM, 10 μM and 100 nM). Additionally, within each plate, 100 nM 5HT and 0.1% DMSO controls were also imaged.
(§3) Imaging was performed using the Leica DMi8 inverted microscope with a 40× objective using the FITC preset with an excitation of 460 nm and emission of 512-542 nm. For each well, the cellular membrane where the 5HT2A sensor is targeted was autofocused using the adaptive focus controls and 5 images from different regions within the well were taken with each image processed from a 2×2 binning.
(§4) For data processing, the membranes from each image was segmented and analyzed using a custom algorithm written in MATLAB producing a single raw fluorescence intensity value. For each well the 5 raw fluorescence intensity values generated from the 5 images were averaged and the change in fluorescence intensity (dFF) was calculated as: dFF=(Fsat−Fapo)/Fapo
(§5) For both agonist and antagonist modes, the fluorescence intensity values before compound addition in HBSS only were used as the Fapo values while the fluorescence intensity values after compound addition were used as the Fsat values.
(§6) For agonist mode, data are as percent activation relative to 5HT, where 0 is the average of the DMSO wells and 100 is the average of the 100 uM 5HT wells. For antagonist mode, the inactivation score was calculated as: Inactivation score=(dFFF(Compound+5HT)−dFF(5HT))/dFF(5HT)

Assay [2] deals with 5HT2A sensor. Put plainly: 5HT2A sensor assay, antagonist mode (sLight1.3s HEK293T stable line). The assay is classed as cell-based. Conditions: 10 μM of compound (FIG. 13). As to the method:
In some embodiments, the 5HT2A sensor assay is in an antagonist mode.
as §1, §2, §3, §4, §5, §6

The next assay has as its system cortical neurons. Put plainly: Dendritogenesis assay, Sholl analysis. The format is cell-based, rat. Conditions: 10 μM; for Emax at 10 µM: Rattus norvegicus, Cortical neurone, Nmax with vehicle (DMSO) = 0% and ketamine = 100%, read-out: % efficacy in sholls; for dendritic arbor complexity / neuronal growth (Nmax of Sholl plots): cortical neurons. The source says: Dendritogenesis Assays. Phenotypic screening has historically proven more successful than target-based approaches for identifying drugs with novel mechanisms of action. Having established a simple and robust method for accessing isoDMT analogs, tested next was their ability to increase dendritic arbor complexity in cultures of cortical neurons using a phenotypic assay. Following treatment, neurons were fixed and visualized using an antibody against MAP2—a cytoskeletal protein localized to the somatodendritic compartment of neurons. Sholl analysis was then performed, and the maximum number of crossings (Nmax) was used as a quantitative metric of dendritic arbor complexity. For statistical comparisons between specific compounds, the raw Nmax values were compared. Percent efficacies were determined by setting the Nmax values for the vehicle (DMSO) and positive (ketamine) controls equal to 0% and 100%, respectively.
Animals. For the dendritogenesis experiments, timed pregnant Sprague Dawley rats were obtained from Charles River Laboratories (Wilmington, Mass.). For the head-twitch response assay, male and female C57BL/6J mice were obtained from Jackson Laboratory (Sacramento, Calif.). Mice were housed in a temperature and humidity-controlled room maintained on a 12-h light/dark cycle in groups of 4-5 (same sex). Animals weighed between 17 and 30 g at the time of the experiments. All experimental procedures involving rodents were approved by the UC Davis Institutional Animal Care and Use Committee (IACUC) and adhered to principles described in the National Institutes of Health Guide for the Care and Use of Laboratory Animals. The University of California, Davis and the University of California, San Francisco are accredited by the Association for Assessment and Accreditation of Laboratory Animal Care International (AAALAC).
Dendritogenesis—Sholl Analysis. Dendritogenesis experiments were performed following a previously published method with slight modifications. Neurons were plated in 96-well format (200 μL of media per well) at a density of approximately 15,000 cells/well in Neurobasal (Life Technologies) containing 1% penicillin-streptomycin, 10% heat-inactivated fetal bovine serum, and 0.5 mM glutamine. After 24 h, the medium was replaced with Neurobasal containing 1× B27 supplement (Life Technologies), 1% penicillin-streptomycin, 0.5 mM glutamine, and 12.5 μM glutamate. After 3 days in vitro (DIV3), the cells were treated with compounds. All compounds tested in the dendritogenesis assays were treated at 10 μM unless noted otherwise. Stock solutions of the compounds in DMSO were first diluted 100-fold in Neurobasal before an additional 10-fold dilution into each well (total dilution=1:1000; 0.1% DMSO concentration). Treatments were randomized. After 1 h, the media was removed and replaced with new Neurobasal media containing 1× B27 supplement, 1% penicillin-streptomycin, 0.5 mM glutamine, and 12.5 μM glutamate. The cells were allowed to grow for an additional 71 h. At that time, neurons were fixed by removing 80% of the media and replacing it with a volume of 4% aqueous paraformaldehyde (Alfa Aesar) equal to 50% of the working volume of the well. Then, the cells were incubated at room temperature for 20 min before the fixative was aspirated and each well washed twice with DPBS. Cells were permeabilized using 0.2% Triton X-100 (ThermoFisher) in DPBS for 20 minutes at room temperature without shaking. Plates were blocked with antibody diluting buffer (ADB) containing 2% bovine serum albumin (BSA) in DPBS for 1 h at room temperature. Then, plates were incubated overnight at 4° C. with gentle shaking in ADB containing a chicken anti-MAP2 antibody (1:10,000; EnCor, CPCA-MAP2). The next day, plates were washed three times with DPBS and once with 2% ADB in DPBS. […]

“Also recorded” adds a separate entry of the source.

For `CCN(CC)C(=O)[C@@H]1C=C2c3cccc4[nH]c(Br)c(c34)C[C@H]2N(C)C1` [BOL148, reference compound], the “activation of 5HT2A sensor assay in agonist mode at 10 μM” value (from here on “activation … at 10 μM”) in the assay with 5HT2A sensor [1] is recorded as “do not activate the 5HT2A sensor assay in agonist mode”. Besides, the “competition with 5HT binding to 5HT2A, antagonist mode sensor assay at 10 μM” value (from here on “competition with 5HT binding to 5HT2A”) in the assay with 5HT2A sensor [2] is given as “compete with 5HT binding to 5HT2A”.
On to `COc1cc(CC(C)N)c(OC)cc1I` (centres unmarked) [DOI, reference compound], for which the “activation … at 10 μM” value in the assay with 5HT2A sensor [1] is on record as “activate the 5HT2A sensor assay in agonist mode”.
As to `CCN(CC)CCc1c[nH]c2cc(F)ccc12` [Example 6-F-DET, reference compound], the “activation … at 10 μM” value in the assay on 5HT2A sensor [1] is “do not activate the 5HT2A sensor assay in agonist mode”. Besides, in the assay with 5HT2A sensor [2], the “competition with 5HT binding to 5HT2A” value was “compete with 5HT binding to 5HT2A”.
For `CN(C)CCn1ccc2c(OCc3ccccc3)cccc21` [Example 8, 2-(4-(benzyloxy)-1H-indol-1-yl)-N,N-dimethylethan-1-amine], the Emax at 10 µM with cortical neurons was determined as 38%.
For `CN(C)CCn1ccc2cc(OCc3ccccc3)ccc21` [Example 9, 2-(5-(benzyloxy)-1H-indol-1-yl)-N,N-dimethylethan-1-amine], the Emax at 10 µM with cortical neurons was found to be 78%.
On to `CN(C)CCn1ccc2ccc(OCc3ccccc3)cc21` [Example 10, 2-(6-(benzyloxy)-1H-indol-1-yl)-N,N-dimethylethan-1-amine], for which the Emax at 10 µM in the assay on cortical neurons came out at 65%.
On to `CN(C)CCn1ccc2cccc(OCc3ccccc3)c21` [Example 11, 2-(7-(benzyloxy)-1H-indol-1-yl)-N,N-dimethylethan-1-amine], for which, in the assay on cortical neurons, the Emax at 10 µM came out at 131%.
Turning to `CN(C)CCn1ccc2c(F)cccc21` [Example 12, 2-(4-fluoro-1H-indol-1-yl)-N,N-dimethylethan-1-amine], in the assay on cortical neurons, the Emax at 10 µM was 37%.
Take `CN(C)CCn1ccc2cc(F)ccc21` [Example 13, 2-(5-fluoro-1H-indol-1-yl)-N,N-dimethylethan-1-amine]: in the assay with cortical neurons, the Emax at 10 µM stood at 75%; the “dendritic arbor complexity / neuronal growth (Nmax of Sholl plots)” value is “performed identically to 28 and 29”.
Turning to `CN(C)CCn1ccc2cccc(F)c21` [Example 15, 2-(7-fluoro-1H-indol-1-yl)-N,N-dimethylethan-1-amine], the Emax at 10 µM in the assay with cortical neurons was 85%.
`CN(C)CCn1ccc2cc(F)c(F)cc21` [Example 17, 2-(5,6-difluoro-1H-indol-1-yl)-N,N-dimethylethan-1-amine]: the Emax at 10 µM in the assay on cortical neurons turned out to be 84%.
Take `CN(C)CCn1ccc2c(F)cc(F)cc21` [Example 18, 2-(4,6-difluoro-1H-indol-1-yl)-N,N-dimethylethan-1-amine]: in the assay on cortical neurons, the Emax at 10 µM turned out to be 62%.
Regarding `CN(C)CCn1cc(C(=O)C(=O)N(C)C)c2ccccc21` [Example 21, 2-(1-(2-(dimethylamino)ethyl)-1H-indol-3-yl)-N,N-dimethyl-2-oxoacetamide], in the assay with cortical neurons, the Emax at 10 µM amounted to 72% and the “dendritic arbor complexity / neuronal growth (Nmax of Sholl plots)” value was “well tolerated”.
The like results for `CN(C)CCn1cccc1` [Example 23, N,N-dimethyl-2-(1H-pyrrol-1-yl)ethan-1-amine] were, in that order, 64% and “minimal effect on the ability of these molecules to promote neuronal growth”.
Consider `CC(C)CCn1ccc2ccccc21` [Example 25, 1-isopentyl-1H-indole], for which, in the assay with cortical neurons, the Emax at 10 µM was determined as 17% and the “dendritic arbor complexity / neuronal growth (Nmax of Sholl plots)” value was “did not promote dendritogenesis”.
For `CN(C)CCc1cn(C)c2ccccc12` [Example 27, N,N-dimethyl-2-(1-methyl-1H-indol-3-yl)ethan-1-amine, reference compound] the same measures were 73% and “increase dendritic arbor complexity to a comparable extent as DMT (1); also recorded: increased dendritic arbor complexity to a comparable extent as 1”.
In the case of `CN(C)CCc1c[nH]c2cc(F)ccc12` [Example 29, 2-(6-fluoro-1H-indol-3-yl)-N,N-dimethylethan-1-amine, reference compound], the Emax at 10 µM in the assay with cortical neurons worked out at 81%.
On to `COc1ccc2c(ccn2C[C@@H](C)N(C)C)c1` [Example 32, (R)-1-(5-methoxy-1H-indol-1-yl)-N,N-dimethylpropan-2-amine], for which the Emax at 10 µM in the assay on cortical neurons was 88%.
Turning to `C[C@H](Cn1ccc2cc(F)ccc21)N(C)C` [Example 33, (R)-1-(5-fluoro-1H-indol-1-yl)-N,N-dimethylpropan-2-amine], the Emax at 10 µM in the assay on cortical neurons is 65%.
As for `O=C(c1ccc(F)cc1)C1CCN(CCn2c(=O)[nH]c3ccccc3c2=O)CC1` [Ketanserin, reference compound], the “activation … at 10 μM” value in the assay with 5HT2A sensor [1] was “do not activate the 5HT2A sensor assay in agonist mode”. Also, in the assay on 5HT2A sensor [2], the “competition with 5HT binding to 5HT2A” value is on record as “compete with 5HT binding to 5HT2A”.
In the case of `CNC(C)Cc1ccc2c(c1)OCO2` [L-MDMA, reference compound], in the assay on 5HT2A sensor [1], the “activation … at 10 μM” value was “do not activate the 5HT2A sensor assay in agonist mode”.
Take `CCN(CC)C(=O)[C@@H]1C=C2c3cccc4[nH]cc(c34)C[C@H]2N(C)C1` [LSD, lysergic acid diethylamide, reference compound]: the “activation … at 10 μM” value in the assay with 5HT2A sensor [1] is on record as “activate the 5HT2A sensor assay in agonist mode”. The “activation of 5HT2A sensor assay in agonist mode (dose response)” value in the assay with 5HT2A sensor [1] (dose response (FIG. 10)) is recorded as “activate”.
Consider `CN[C@H](C)Cc1ccc2c(c1)OCO2` [R-MDMA, reference compound], for which the “activation … at 10 μM” value in the assay with 5HT2A sensor [1] is reported as “do not activate the 5HT2A sensor assay in agonist mode”.

Values taken from patent US11254640B2, “N-substituted indoles and other heterocycles for treating brain disorders” (The Regents of the University of California, priority 2019, dated 2022).
